According to patent US9272927B2, “Method for preventing growth of microorganisms, and a combination for the prevention of microbial growth” (KEMIRA, OYJ, priority 2006, dated 2016):

Assays:
Format in all cases: cell-based
[1] = tested on: aerobic bacteria present in circulation water; experiment: Bactericidal test on circulation water from an alkaline fine paper machine, agar plate count (Example 6); conditions: for killing of bacteria: 3 hours; for re-growth of bacteria: single biocide only, dosages that had yielded an efficient kill, within 1 day
Experimental: Circulation water (pH 8.2, ORP+169 mV) was collected from an alkaline fine paper machine (producing uncoated copy paper) and divided in 11 plastic containers. When two different biocides were dosed in to same container, the peracid was dosed first, the sample mixed thoroughly, and the second biocide was added within 5 to 10 minutes. All biocide dosages are reported as ppm (mg/l) of the commercial product, for example 20 ppm of performic acid (PFA) equilibrium product equals about 2 ppm as performic acid active substance, 12 ppm of BCDMH product equals about 4 ppm as active chlorine and 30 ppm of MCDMH product equals about 3 ppm as active chlorine. After biocide dosing the containers were capped and incubated at paper machine temperature (45° C.) with continuous agitation. The killing efficacy of different biocide dosages was measured 3 hours and 1 day after the biocide dosing using agar plate count method (PCA agar, 45° C., and 2 days).

[2] = tested on: biofilm of a mixture of adherent bacteria (Deinococcus geothermalis, Pseudoxanthomonas taiwanensis and Meiothermus silvanus); experiment: Test for destructing a biofilm on stainless steel pegs, regrowth of new biofilm stained with safranin (Example 5); parameters: key: ++++: great amounts of biofilm were formed; ++: clearly reduced formation of the new biofilm, but not the complete inhibition thereof; −: completely inhibiting the new biofilm; conditions: total contact time 3 hours
Experimental: A test for destructing a biofilm was performed as described in the document FI 117056 B (Kemira Oyj). A biofilm was pregrown on lidplates having stainless steel pegs (3 d, 45° C., agitation at 150 rpm.). Clear filtrate of a fine paper machine served as the water (pH 7.6, ORP 71 mV), while a mixture of adherent bacteria (Deinococcus geothermalis, Pseudoxanthomonas taiwanensis and Meiothermus silvanus) grown in the laboratory was used for inoculation. After identical biofilms were grown on all the pegs of the lids, the lids were removed from the clear filtrate used for cultivation, washed with tap water and placed on plastic plates with 12 wells, one peg per well. 3.5 ml of the clear filtrate from the same paper machine, and the biocides to be tested were added in advance to each well. The pegs with biofilms were first immersed into the wells for 15 minutes, followed by removal of the plates for a moment for the addition of the other components of the biocidal combinations to the wells. Exposure to biocides was continued to attain a total contact time of 3 hours. Then, viability of the biofilms was determined by transferring the peglids to fresh 12-well plates where each well contained 2 ml of sterile cultivation broth, followed by cultivating the plates for 19 hours at 45° C. while mixing at 150 rpm. […]

[3] = tested on: aerobic bacteria present in broke; experiment: Bactericidal test on dilute broke of a board machine (Example 1); conditions: BCDMH 30 ppm alone; contact time 24 hours
Experimental: Dilute broke of a board machine (pH 7.8, oxidation reduction potential (ORP) 40 mV) was divided into 10 separate jars, and biocides to be tested were dosed. Concentrations are expressed in ppm (mg/l) of the commercially available product. In tests where two different agents were dosed into a single jar, the jar was closed after the first pipetting, the broke sample was vigorously agitated, followed by the addition of the second agent during 5 to 10 minutes. Jars were incubated under conditions corresponding to those in the broke system (45° C., mixing), and thereafter, viable aerobic bacterial counts were determined by cultivation after exposure periods of 4 and 24 hours.
In this bactericidal test on broke, killing efficacy of BCDMH and ePAA used alone and in combinations were compared, two thirds of BCDMH being replaced in the combinations with peracetic acid used in threefold amounts. For instance BCDMH 10 ppm versus ePAA 30 ppm versus BCDMH 3.3 ppm+ePAA 20 ppm.
The combination “BCDMH 3.3 ppm+ePAA 20 ppm” means that BCDMH was added prior to ePAA.

Structure (SMILES)	killing of bacteria ([1]; 45 ppm of MCDMH alone)	re-growth of bacteria [1]	formation of new biofilm ([2]; 60 ppm of MCDMH alone)	inhibition of regrowth [3]	killing of bacteria ([1]; 12 ppm of BCDMH alone)	formation of new biofilm ([2]; 16 ppm of BCDMH alone)
CC1(C)C(=O)NC(=O)N1Cl [MCDMH, monochlorodimethyl hydantoin]	most efficient	active re-growth of bacteria had occurred	++++			
CC1(C)C(=O)N(Cl)C(=O)N1Br [BCDMH, bromochlorodimethyl hydantoin]		active re-growth of bacteria had occurred		inhibited more effectively by BCDMH 30 ppm than PAA alone	most efficient	++
